Tested on: wildtype (WT) human fibroblast cell lines
Test: Transcriptome-wide splicing by RNA sequencing (RNASeq), exon triplet PSI change
Type: cell-based
Parameters: key to Effect: Exclusion; Inclusion; Unchanged
Text: FIG. 2A provides a representation of an exon triplet. Exon U is upstream of Exon X, which is upstream of Exon D. R1, R2 and R3 represent RNA sequencing (RNASeq) reads spanning the regions between two adjacent exons. UI1, I1X, XI2 and I2D are four regions flanking the four splice sites of the exon-triplet. Each flanking region consists of 25 exonic base pairs and 75 intronic base pairs.
FIG. 2B provides a volcano plot showing the ψ (PSI: Percent Spliced-In) changes in splicing after treatment with Compound (I). Each dot represents one of the 161,097 expressed exon triplets in human fibroblasts. The x axis represents the ψ changes after treatment and the y axis represents the False Discovery Rate (FDR) (log 10 transformed). […] The horizontal dashed line indicates an FDR of 0.1. The dots on the right side of the right vertical dashed line and above the horizontal dashed line represent the exon-triplets with an increase for Exon X inclusion (Δψ≥0.1 and FDR<0.1) while the dots on left side of the left vertical dashed line and above the horizontal dashed line represent an increase for Exon X exclusion (Δψ≤−0.1 and FDR<0.1). Black dots in-between the two vertical dashed lines represent exon-triplets unchanged from the treatment.
In some aspects, analysis is performed on data derived from the assay to measure the magnitude of splicing to determine the amount of exons spliced into an mRNA transcript that is produced in the presence of Compound (I) relative to the amount in the absence of Compound (I) or presence of a negative control. In a preferred aspect, the method utilized is calculation of change in Percent Spliced In (ΔPSI). […] The ΔPSI value is derived from the formula: […]
The values for “a” and “b” represent the number of reads supporting the probability for potential inclusion or exclusion of an exon in an RNA transcript. The “a” value is derived from the number of reads within an exon triplet covering, in 5′ to 3′ order: the last few bases (>1 nucleotide) of an upstream exon operably linked to the first few bases (>1 nucleotide) of a middle exon. The “b” value is derived from the number of reads within an exon triplet covering, in 5′ to 3′ order: the last few bases (>1 nucleotide) of the middle exon operably linked to the first few bases (>1 nucleotide) of a downstream exon. The number of reads will indicate whether the splice junction of a middle exon has been identified as potentially having a CNN Motif(s) by the CNN Model described herein, wherein the inclusion or exclusion of the middle exon may be modulated in the presence of Compound (I) to produce one or more mature RNA isoforms from the gene transcript. The value for “c” represents the number of reads supporting the exclusion of the middle exon.
The effect on splicing modulation and corresponding splice differences toward exon inclusion or exclusion was determined by counting the RNASeq reads covering two splice junctions of exon triplets (three consecutive exons: Exon U, Exon X, Exon D) and the corresponding intervening introns, then comparing the change in Percent Spliced In (ΔPSI or Δψ) of the middle exon (Exon X) after treatment (as shown in FIG. 2A)^52,53. 934 exon triplets were identified showing differential middle exon inclusion or exclusion in response to Compound (I) treatment. Of these, 254 were exon inclusion events (Δψ≥0.1 and FDR<0.1) and 680 were exon exclusion events (Δψ≤−0.1 and FDR<0.1) (as shown in FIG. 2B). […] The splicing results were evaluated by RT-PCR in independent replicate experiments, confirming all the calculated Δψ values. […]

SMILES: Clc1nc(NCc2ccncc2)c2cc[nH]c2n1 [Compound (I), 2-chloro-N-(pyridin-4-ylmethyl)-7H-pyrrolo[2,3-d]pyrimidin-4-amine]
- splicing changes, share of all expressed triplets (934 out of 161,097 expressed triplets): 0.58%
- Effect (Exc/Inc/Unc of the middle exon of the exon triplet, six WT human fibroblast cell lines treated for seven days vs DMSO, gene LENG8): Exc
- Effect (Exc/Inc/Unc of the middle exon of the exon triplet, six WT human fibroblast cell lines treated for seven days vs DMSO, gene LGALS8): Inc
- Effect (Exc/Inc/Unc of the middle exon of the exon triplet, six WT human fibroblast cell lines treated for seven days vs DMSO, gene LRP12): Unc
- Effect (MYO1B Exon 192265475-192265561): Inc
- T-PSI (MYO1B Exon 192265475-192265561): 0.296
- ΔPSI (MYO1B Exon 192265475-192265561): 0.128
- Effect (MYO1B Exon 192267358-192267444): Inc
- T-PSI (MYO1B Exon 192267358-192267444): 0.483
- ΔPSI (MYO1B Exon 192267358-192267444): 0.190
- Effect (MYO5A Exon 52630007-52630081): Exc
- T-PSI (MYO5A Exon 52630007-52630081): 0.063
- ΔPSI (MYO5A Exon 52630007-52630081): −0.118
- Effect (MYO5A Exon 52635314-52635394): Unc
- T-PSI (MYO5A Exon 52635314-52635394): 0.617
- ΔPSI (MYO5A Exon 52635314-52635394): 0.007
- Effect (MYO5A Exon 52641015-52641023): Inc
- T-PSI (MYO5A Exon 52641015-52641023): 0.953
- ΔPSI (MYO5A Exon 52641015-52641023): 0.130
- Effect (MYO18A Exon 27464034-27464102): Unc
- T-PSI (MYO18A Exon 27464034-27464102): 0.330
- ΔPSI (MYO18A Exon 27464034-27464102): 0.005
- Effect (MYO19 Exon 34870956-34871025): Exc
- T-PSI (MYO19 Exon 34870956-34871025): 0.870
- ΔPSI (MYO19 Exon 34870956-34871025): −0.109
- Effect (N6AMT2 Exon 21311862-21311944): Unc
- T-PSI (N6AMT2 Exon 21311862-21311944): 0.755
- ΔPSI (N6AMT2 Exon 21311862-21311944): 0.010
- Effect (NABP1 Exon 192547218-192547321): Inc
- T-PSI (NABP1 Exon 192547218-192547321): 0.729
- ΔPSI (NABP1 Exon 192547218-192547321): 0.198
- Effect (NADK2 Exon 36208727-36208792): Exc
- T-PSI (NADK2 Exon 36208727-36208792): 0.005
- ΔPSI (NADK2 Exon 36208727-36208792): −0.102
- Effect (NAE1 Exon 66860571-66860683): Exc
- T-PSI (NAE1 Exon 66860571-66860683): 0.596
- ΔPSI (NAE1 Exon 66860571-66860683): −0.315
- Effect (NAE1 Exon 66860580-66860683): Exc
- T-PSI (NAE1 Exon 66860580-66860683): 0.859
- ΔPSI (NAE1 Exon 66860580-66860683): −0.115
- Effect (NBN Exon 90994181-90994230): Exc
- T-PSI (NBN Exon 90994181-90994230): 0.017
- ΔPSI (NBN Exon 90994181-90994230): −0.156
- Effect (NCK2 Exon 106497784-106498505): Unc
- T-PSI (NCK2 Exon 106497784-106498505): 0.586
- ΔPSI (NCK2 Exon 106497784-106498505): −0.008
- Effect (NCOR2 Exon 124811955-124812179): Unc
- T-PSI (NCOR2 Exon 124811955-124812179): 0.657
- ΔPSI (NCOR2 Exon 124811955-124812179): 0.000
- Effect (NCOR2 Exon 124812093-124812179): Unc
- T-PSI (NCOR2 Exon 124812093-124812179): 0.681
- ΔPSI (NCOR2 Exon 124812093-124812179): −0.001
- Effect (NEDD1 Exon 97301382-97301634): Unc
- T-PSI (NEDD1 Exon 97301382-97301634): 0.826
- ΔPSI (NEDD1 Exon 97301382-97301634): −0.003
- Effect (NEDD1 Exon 97301480-97301634): Unc
- T-PSI (NEDD1 Exon 97301480-97301634): 0.878
- ΔPSI (NEDD1 Exon 97301480-97301634): 0.008
- Effect (NEK1 Exon 170508710-170508764): Exc
- T-PSI (NEK1 Exon 170508710-170508764): 0.830
- ΔPSI (NEK1 Exon 170508710-170508764): −0.152
- Effect (NEO1 Exon 73567033-73567065): Inc
- T-PSI (NEO1 Exon 73567033-73567065): 0.149
- ΔPSI (NEO1 Exon 73567033-73567065): 0.120
- Effect (NEXN Exon 78390873-78390914): Exc
- T-PSI (NEXN Exon 78390873-78390914): 0.654
- ΔPSI (NEXN Exon 78390873-78390914): −0.138
- Effect (NF2 Exon 30079009-30079053): Inc
- T-PSI (NF2 Exon 30079009-30079053): 0.900
- ΔPSI (NF2 Exon 30079009-30079053): 0.167
- Effect (NF2 Exon 30079009-30079068): Inc
- T-PSI (NF2 Exon 30079009-30079068): 0.807
- ΔPSI (NF2 Exon 30079009-30079068): 0.244
- Effect (NFE2L1 Exon 46134394-46134483): Exc
- T-PSI (NFE2L1 Exon 46134394-46134483): 0.327
- ΔPSI (NFE2L1 Exon 46134394-46134483): −0.156

Reference: patent publication US20230047208A1, “RNA Splicing Modulation” (The General Hospital Corporation, priority 2020, published 2023)
